Reference: ChEMBL document CHEMBL1151757, “Synthesis, radiosynthesis, and biological evaluation of fluorine-18-labeled 2beta-carbo(fluoroalkoxy)-3beta-(3'-((Z)-2-haloethenyl)phenyl)nortropanes: candidate radioligands for in vivo imaging of the serotonin transporter with positron emission tomography” (J Med Chem, 2008)

Experiments:
[1] = Ratio of drug uptake in pons to cerebellum in anesthetized cynomolgus monkey after 18.5 mins postinjection; type: ADME, organism-based, Macaca fascicularis; settings: in vivo
[2] = system: Thalamus; test: Drug uptake in anesthetized cynomolgus monkey brain thalamus after 2.5 mins postinjection; type: ADME, organism-based, Macaca fascicularis; design: unit not given here; settings: in vivo
[3] = system: Caudate; test: Drug uptake in anesthetized cynomolgus monkey brain caudate after 45 mins postinjection; type: ADME, organism-based, Macaca fascicularis, Caudate nucleus; settings: in vivo, 0.75 h
[4] = system: Pons; test: Drug uptake in anesthetized cynomolgus monkey brain pons after 12.5 mins postinjection; type: ADME, organism-based, Macaca fascicularis; settings: in vivo
[5] = system: Caudate; test: Drug uptake in anesthetized cynomolgus monkey brain caudate after 185 mins postinjection; type: ADME, organism-based, Macaca fascicularis, Caudate nucleus; settings: in vivo
[6] = system: Midbrain; test: Drug uptake in anesthetized cynomolgus monkey brain midbrain after 175 mins postinjection; type: ADME, organism-based, Macaca fascicularis; settings: in vivo
[7] = system: Midbrain; test: Drug uptake in anesthetized cynomolgus monkey brain midbrain after 145 mins postinjection; type: ADME, organism-based, Macaca fascicularis; settings: in vivo
[8] = Drug uptake in anesthetized cynomolgus monkey brain occipital lobe after 0.5 mins postinjection; type: ADME, organism-based, Macaca fascicularis; settings: in vivo
[9] = system: Caudate; test: Drug uptake in anesthetized cynomolgus monkey brain caudate after 6.5 mins postinjection; type: ADME, organism-based, Macaca fascicularis, Caudate nucleus; settings: in vivo
[10] = Ratio of drug uptake in occipital lobe to cerebellum in anesthetized cynomolgus monkey after 185 mins postinjection; type: ADME, organism-based, Macaca fascicularis; settings: in vivo
[11] = Ratio of drug uptake in midbrain to cerebellum in anesthetized cynomolgus monkey after 235 mins postinjection; type: ADME, organism-based, Macaca fascicularis; settings: in vivo
[12] = system: Putamen; test: Drug uptake in anesthetized cynomolgus monkey brain putamen after 195 mins postinjection; type: ADME, organism-based, Macaca fascicularis; settings: in vivo, 3.25 h
[13] = Drug uptake in anesthetized cynomolgus monkey brain frontal lobe after 225 mins postinjection; type: ADME, organism-based, Macaca fascicularis; settings: in vivo, 3.75 h
[14] = system: Medulla; test: Drug uptake in anesthetized cynomolgus monkey brain medulla after 175 mins postinjection; type: ADME, organism-based, Macaca fascicularis; settings: in vivo
[15] = Ratio of drug uptake in thalamus to cerebellum in anesthetized cynomolgus monkey after 95 mins postinjection; type: ADME, organism-based, Macaca fascicularis; settings: in vivo
[16] = system: Putamen; test: Drug uptake in anesthetized cynomolgus monkey brain putamen after 4.5 mins postinjection; type: ADME, organism-based, Macaca fascicularis; design: unit not given here; settings: in vivo, 0.075 h
[17] = system: Medulla; test: Drug uptake in anesthetized cynomolgus monkey brain medulla after 18.5 mins postinjection; type: ADME, organism-based, Macaca fascicularis; settings: in vivo
[18] = Ratio of drug uptake in occipital lobe to cerebellum in anesthetized cynomolgus monkey after 115 mins postinjection; type: ADME, organism-based, Macaca fascicularis; settings: in vivo
[19] = system: Pons; test: Drug uptake in anesthetized cynomolgus monkey brain pons after 155 mins postinjection; type: ADME, organism-based, Macaca fascicularis; settings: in vivo
[20] = system: Caudate; test: Drug uptake in anesthetized cynomolgus monkey brain caudate after 18.5 mins postinjection; type: ADME, organism-based, Macaca fascicularis, Caudate nucleus; settings: in vivo
[21] = system: Medulla; test: Drug uptake in anesthetized cynomolgus monkey brain medulla after 2.5 mins postinjection; type: ADME, organism-based, Macaca fascicularis; settings: in vivo
[22] = Ratio of drug uptake in midbrain to cerebellum in anesthetized cynomolgus monkey after 135 mins postinjection; type: ADME, organism-based, Macaca fascicularis; settings: in vivo, 2.25 h
[23] = system: Caudate; test: Drug uptake in anesthetized cynomolgus monkey brain caudate after 115 mins postinjection; type: ADME, organism-based, Macaca fascicularis, Caudate nucleus; settings: in vivo
[24] = Ratio of drug uptake in occipital lobe to cerebellum in anesthetized cynomolgus monkey after 125 mins postinjection; type: ADME, organism-based, Macaca fascicularis; settings: in vivo
[25] = system: Thalamus; test: Drug uptake in anesthetized cynomolgus monkey brain thalamus after 115 mins postinjection; type: ADME, organism-based, Macaca fascicularis; design: unit not given here; settings: in vivo
[26] = Ratio of drug uptake in pons to cerebellum in anesthetized cynomolgus monkey after 6.5 mins postinjection; type: ADME, organism-based, Macaca fascicularis; settings: in vivo
[27] = system: Midbrain; test: Drug uptake in anesthetized cynomolgus monkey brain midbrain after 65 mins postinjection; type: ADME, organism-based, Macaca fascicularis; design: unit not given here; settings: in vivo
[28] = system: Medulla; test: Drug uptake in anesthetized cynomolgus monkey brain medulla after 205 mins postinjection; type: ADME, organism-based, Macaca fascicularis; settings: in vivo
[29] = system: Thalamus; test: Drug uptake in anesthetized cynomolgus monkey brain thalamus after 35 mins postinjection; type: ADME, organism-based, Macaca fascicularis; design: unit not given here; settings: in vivo
[30] = system: Putamen; test: Drug uptake in anesthetized cynomolgus monkey brain putamen after 27.5 mins postinjection; type: ADME, organism-based, Macaca fascicularis; design: unit not given here; settings: in vivo
[31] = system: Medulla; test: Drug uptake in anesthetized cynomolgus monkey brain medulla after 225 mins postinjection; type: ADME, organism-based, Macaca fascicularis; settings: in vivo, 3.75 h
[32] = Ratio of drug uptake in thalamus to cerebellum in anesthetized cynomolgus monkey after 195 mins postinjection; type: ADME, organism-based, Macaca fascicularis; settings: in vivo, 3.25 h
[33] = Ratio of drug uptake in midbrain to cerebellum in anesthetized cynomolgus monkey after 185 mins postinjection; type: ADME, organism-based, Macaca fascicularis; settings: in vivo
[34] = system: Medulla; test: Drug uptake in anesthetized cynomolgus monkey brain medulla after 185 mins postinjection; type: ADME, organism-based, Macaca fascicularis; settings: in vivo
[35] = Drug uptake in anesthetized cynomolgus monkey brain occipital lobe after 155 mins postinjection; type: ADME, organism-based, Macaca fascicularis; settings: in vivo
[36] = Ratio of drug uptake in pons to cerebellum in anesthetized cynomolgus monkey after 185 mins postinjection; type: ADME, organism-based, Macaca fascicularis; settings: in vivo
[37] = Drug uptake in anesthetized cynomolgus monkey brain cerebellum after 215 mins postinjection; type: ADME, organism-based, Macaca fascicularis; settings: in vivo
[38] = system: Thalamus; test: Drug uptake in anesthetized cynomolgus monkey brain thalamus after 125 mins postinjection; type: ADME, organism-based, Macaca fascicularis; design: unit not given here; settings: in vivo
[39] = system: Midbrain; test: Drug uptake in anesthetized cynomolgus monkey brain midbrain after 1.5 mins postinjection; type: ADME, organism-based, Macaca fascicularis; design: unit not given here; settings: in vivo, 0.025 h
[40] = system: Medulla; test: Drug uptake in anesthetized cynomolgus monkey brain medulla after 45 mins postinjection; type: ADME, organism-based, Macaca fascicularis; settings: in vivo, 0.75 h
[41] = Drug uptake in anesthetized cynomolgus monkey brain occipital lobe after 195 mins postinjection; type: ADME, organism-based, Macaca fascicularis; settings: in vivo, 3.25 h
[42] = system: Putamen; test: Drug uptake in anesthetized cynomolgus monkey brain putamen after 18.5 mins postinjection; type: ADME, organism-based, Macaca fascicularis; design: unit not given here; settings: in vivo
[43] = system: Thalamus; test: Drug uptake in anesthetized cynomolgus monkey brain thalamus after 175 mins postinjection; type: ADME, organism-based, Macaca fascicularis; design: unit not given here; settings: in vivo
[44] = Drug uptake in anesthetized cynomolgus monkey brain frontal lobe after 235 mins postinjection; type: ADME, organism-based, Macaca fascicularis; settings: in vivo
[45] = system: Midbrain; test: Drug uptake in anesthetized cynomolgus monkey brain midbrain after 235 mins postinjection; type: ADME, organism-based, Macaca fascicularis; settings: in vivo
[46] = system: Thalamus; test: Drug uptake in anesthetized cynomolgus monkey brain thalamus after 85 mins postinjection; type: ADME, organism-based, Macaca fascicularis; design: unit not given here; settings: in vivo
[47] = Ratio of drug uptake in midbrain to cerebellum in anesthetized cynomolgus monkey after 145 mins postinjection; type: ADME, organism-based, Macaca fascicularis; settings: in vivo
[48] = Ratio of drug uptake in occipital lobe to cerebellum in anesthetized cynomolgus monkey after 105 mins postinjection; type: ADME, organism-based, Macaca fascicularis; settings: in vivo, 1.75 h
[49] = Ratio of drug uptake in midbrain to cerebellum in anesthetized cynomolgus monkey after 22.5 mins postinjection; type: ADME, organism-based, Macaca fascicularis; settings: in vivo, 0.375 h
[50] = Ratio of drug uptake in frontal lobe to cerebellum in anesthetized cynomolgus monkey after 135 mins postinjection; type: ADME, organism-based, Macaca fascicularis; settings: in vivo, 2.25 h
[51] = system: Caudate; test: Drug uptake in anesthetized cynomolgus monkey brain caudate after 12.5 mins postinjection; type: ADME, organism-based, Macaca fascicularis, Caudate nucleus; settings: in vivo
[52] = Ratio of drug uptake in pons to cerebellum in anesthetized cynomolgus monkey after 225 mins postinjection; type: ADME, organism-based, Macaca fascicularis; settings: in vivo, 3.75 h
[53] = Ratio of drug uptake in caudate to cerebellum in anesthetized cynomolgus monkey after 65 mins postinjection; type: ADME, organism-based, Macaca fascicularis; settings: in vivo
[54] = Ratio of drug uptake in pons to cerebellum in anesthetized cynomolgus monkey after 0.5 mins postinjection; type: ADME, organism-based, Macaca fascicularis; settings: in vivo

## O=C(OCC[18F])C1C2CCC(CC1c1ccc(/C=C\I)cc1)N2 (configuration not stated)
[1]
  Ratio: 0.9
[2]
  Drug uptake: 0.4
[3]
  Drug uptake: 2.58
[4]
  Drug uptake: 1.88
[5]
  Drug uptake: 2.97
[6]
  Drug uptake: 4.61
[7]
  Drug uptake: 4.65
[8]
  Drug uptake: 0
[9]
  Drug uptake: 1.13
[10]
  Ratio: 1.4
[11]
  Ratio: 4.4
[12]
  Drug uptake: 4.01
[13]
  Drug uptake: 1.56
[14]
  Drug uptake: 3.52
[15]
  Ratio: 1.9
[16]
  Drug uptake: 1.18
[17]
  Drug uptake: 3.01
[18]
  Ratio: 1.3
[19]
  Drug uptake: 3.43
[20]
  Drug uptake: 1.84
[21]
  Drug uptake: 0.5
[22]
  Ratio: 2.8
[23]
  Drug uptake: 3.11
[24]
  Ratio: 1.3
[25]
  Drug uptake: 4.06
[26]
  Ratio: 0.8
[27]
  Drug uptake: 4.13
[28]
  Drug uptake: 3.32
[29]
  Drug uptake: 3.31
[30]
  Drug uptake: 3.38
[31]
  Drug uptake: 3.24
[32]
  Ratio: 2.8
[33]
  Ratio: 3.5
[34]
  Drug uptake: 3.41
[35]
  Drug uptake: 2.02
[36]
  Ratio: 2.6
[37]
  Drug uptake: 1.18
[38]
  Drug uptake: 4.04
[39]
  Drug uptake: 0.1
[40]
  Drug uptake: 3.69
[41]
  Drug uptake: 1.82
[42]
  Drug uptake: 2.87
[43]
  Drug uptake: 3.78
[44]
  Drug uptake: 1.51
[45]
  Drug uptake: 4.44

## O=C(OCC[18F])C1C2CCC(CC1c1cccc(/C=C\I)c1)N2 (configuration not stated)
[1]
  Ratio: 0.7
[2]
  Drug uptake: 0.43
[3]
  Drug uptake: 3.67
[46]
  Drug uptake: 4.04
[4]
  Drug uptake: 2.58
[6]
  Drug uptake: 3.46
[7]
  Drug uptake: 3.85
[8]
  Drug uptake: 0
[47]
  Ratio: 2.1
[48]
  Ratio: 1
[9]
  Drug uptake: 2.02
[13]
  Drug uptake: 1.45
[14]
  Drug uptake: 2.78
[15]
  Ratio: 1.5
[16]
  Drug uptake: 1.53
[17]
  Drug uptake: 3.61
[18]
  Ratio: 0.9
[19]
  Drug uptake: 2.5
[20]
  Drug uptake: 3.07
[21]
  Drug uptake: 0.52
[22]
  Ratio: 2
[23]
  Drug uptake: 3.17
[49]
  Ratio: 1.1
[25]
  Drug uptake: 3.58
[27]
  Drug uptake: 4.91
[29]
  Drug uptake: 4.2
[30]
  Drug uptake: 4.16
[31]
  Drug uptake: 2.37
[35]
  Drug uptake: 1.63
[37]
  Drug uptake: 1.4
[50]
  Ratio: 1.1
[38]
  Drug uptake: 3.41
[39]
  Drug uptake: 0.11
[40]
  Drug uptake: 4
[51]
  Drug uptake: 2.74
[42]
  Drug uptake: 3.78
[43]
  Drug uptake: 2.76
[44]
  Drug uptake: 1.39
[45]
  Drug uptake: 2.94
[52]
  Ratio: 1.6
[53]
  Ratio: 1.1
[54]
  Ratio: 1.7
